The IC50 is the midpoint of a concentration-inhibition curve.

Type in all cases: functional, cell-based
One test has as its system MCF7. The test is described as follows: Cytotoxicity against human MCF7 cells after 72 hrs by MTT assay. The conditions noted are these: MCF7, 72 h. A general note: Tetrazolium dyes change colour on reduction, which living cells bring about.
Another test has as its system HL-60. The test is described as follows: Cytotoxicity against human HL60 cells after 72 hrs by MTT assay. The settings on record: HL-60, 72 h.
The test system of the next test is HCT-8. Briefly: Cytotoxicity against human HCT8 cells after 72 hrs by MTT assay. The settings on record: HCT-8, 72 h.
A further test concerns B16. Briefly: Cytotoxicity against mouse B16 cells after 72 hrs by MTT assay. The settings on record: B16, 72 h.
Another test has as its system CCRF-CEM. The test is described as follows: Cytotoxicity against human CEM cells after 72 hrs by MTT assay.

≈ marks a conversion by molar mass, not a printed value.

For the compound `COc1ccc2c(c1)OC1c3ccc(O)c(O)c3OCC21` (stereo unspecified) [VESTICARPAN], the IC50 is 10 µg/mL (≈ 34.9 µM) in the test with MCF7; 6.9 µg/mL (≈ 24.1 µM) with HL-60; 12.4 µg/mL (≈ 43.3 µM) with HCT-8; 2.7 µg/mL (≈ 9.43 µM) in the test with B16; 7.3 µg/mL (≈ 25.5 µM) in the test with CCRF-CEM.
`COc1cccc2c1C(=O)c1c(O)c3c(c(O)c1C2=O)C[C@@](O)(C(=O)CO)C[C@@H]3O[C@H]1C[C@H](N)[C@H](O)[C@H](C)O1` [DOXORUBICIN] returned an IC50 in the test with MCF7 of 0.2 µg/mL (≈ 0.368 µM).
Regarding `O=C1C[C@@H](c2ccc(O)cc2)Oc2cc(O)ccc21` [LIQUIRTIGENIN], the IC50 is more than 25 µg/mL in the test with MCF7; 22.5 µg/mL (≈ 87.8 µM) in the test with HL-60; 19.5 µg/mL (≈ 76.1 µM) in the test with HCT-8; 5 µg/mL (≈ 19.5 µM) in the test on B16; more than 25 µg/mL with CCRF-CEM.
In the case of `COc1ccc2c(c1)O[C@H]1c3ccc(OC)cc3OC[C@@H]21` [HOMOPTEROCARPIN], the IC50 is 18.5 µg/mL (≈ 65.1 µM) in the test on MCF7; 3.9 µg/mL (≈ 13.7 µM) in the test on HL-60; 6.4 µg/mL (≈ 22.5 µM) with HCT-8; 5.2 µg/mL (≈ 18.3 µM) with B16; 5.5 µg/mL (≈ 19.3 µM) in the test with CCRF-CEM.
As to `COc1ccc2c(c1)OC1c3cc(OC)c(OC)cc3OCC21` (stereo unspecified), the IC50 in the test on MCF7 was 0.7 µg/mL (≈ 2.23 µM); in the test with HL-60, 0.1 µg/mL (≈ 0.318 µM); with HCT-8, 0.6 µg/mL (≈ 1.91 µM); with B16, 2.9 µg/mL (≈ 9.23 µM); in the test with CCRF-CEM, 0.6 µg/mL (≈ 1.91 µM).

The record behind these values is ChEMBL document CHEMBL1158710, “Cytotoxic flavonoids from Platymiscium floribundum” (J Nat Prod, 2005).
